From patent US6740743B2, “Scorpian toxins” (E. I. du Pont de Nemours and Company, priority 1999, dated 2004)

system: Heliothis virescens larvae; assay: Feeding bioassay of recombinant baculoviruses expressing the scorpion peptides on Heliothis virescens larvae; format: in vivo; details: four 5-day-old larvae fed 200 mg viral-contaminated diet; symptoms examined 4, 5, 6 and 7 days after fresh diet added
Description: It has been shown that single amino acids residues are important for receptor binding and for biological activity of K-channel toxins (Sabatier et al. (1994) Int. J. Peptide Protein Res. 43:486-495). The cDNAs described herein were cloned into baculoviruses and used to test their activity against Lepidopteran.
The DNA encoding the peptides was amplified by performing PCR and adding a Bgl II restriction site at the 5′ end and an Eco RI site at the 3′ end to allow cloning into the baculovirus transfer vector pAcUW21 (BD Biosciences-PharMingen, San Diego, Calif.). After amplification in E. coli the presence of the appropriate fragments was confirmed by restriction enzyme analysis. Colonies containing the appropriate fragments were isolated, propagated, and plasmid DNA was prepared for lipofectin-mediated co-transfection into insect cells with linearized polyhedrin-negative AcNPV. Co-transfections were performed essentially as described in Example 7. Polyhedrin-positive recombinant viruses were isolated employing standard plaque purification protocols and were mixed with a plug of HV diet (www.Bio-Serv.com) and fed to Heliothis virescens larvae.
Depicted in Table 3 are the results from two independent experiments in which four 5-day-old larvae were fed 200 mg of viral-contaminated diet. The larvae were allowed to eat for 2 days or until the viral-contaminated diet was consumed, then fresh 1 g diet plugs were added to allow continued feeding.

Molecule | Activity of Scorpion Potassium Channel Modifiers on Heliothis virescens Larvae, Experiment 1 | Activity of Scorpion Potassium Channel Modifiers on Heliothis virescens Larvae, Experiment 2
ibj1c.pk005.e21: Buthotus judaicus scorpion leiuropeptide III homolog; mature toxin amino acids 31-59 of SEQ ID NO:10, expressed from recombinant baculovirus (VGCEDCPEHCSQQNARAKCENDKCVCEPK) | Slightly Active | Active (scored as active if the larvae became irritated and had contractions and died)
ibj1c.pk005.n9: Buthotus judaicus scorpion potassium channel blocking toxin 15-1 homolog; mature toxin amino acids 23-58 of SEQ ID NO:18, expressed from recombinant baculovirus (DLIDVKCISSQECWIACKKVTGRFQGKCQNKQCRCY) | Slightly Active | Slightly Active
ibj1c.pk006.h8: Buthotus judaicus scorpion potassium channel blocking toxin 15-1 homolog; mature toxin amino acids 23-58 of SEQ ID NO:16, expressed from recombinant baculovirus (GLIDVRCSASRECWEACRKVTGSGQGKCQNNQCRCY) | Slightly Active | Active (scored as active if the larvae became irritated and had contractions and died)
ibj1c.pk006.i20: Buthotus judaicus scorpion kaliotoxin 2 precursor homolog; mature toxin amino acids 23-61 of SEQ ID NO:4, expressed from recombinant baculovirus (QYELDVTCMGGADNCVKPCYDKYGTTKTKCINDRCNCYP) | Slightly Active | Slightly Active
ibj1c.pk007.c13: Buthotus judaicus scorpion leiurotoxin I homolog; mature toxin amino acids 38-70 of SEQ ID NO:12, expressed from recombinant baculovirus (AFCNLRRCQLICRESGLLGKCIGDRCECVPHGK) | Slightly Active | Slightly Active
ibj1c.pk007.k8: Buthotus judaicus scorpion cobatoxin 1 homolog; mature toxin amino acids 22-58 of SEQ ID NO:2, expressed from recombinant baculovirus (NFKVEAAQCYSSDCRVKCAAMGFNSGKCINSKCKCYK) | Slightly Active | Slightly Active
ibj1c.pk008.d3: Buthotus judaicus scorpion leiuropeptide I homolog; mature toxin amino acids 29-56 of SEQ ID NO:8, expressed from recombinant baculovirus (VDCEECPFHCAGKNAIPTCDDGECNCNV) | Slightly Active | Slightly Active
ibj1c.pk009.i6: Buthotus judaicus scorpion kaliotoxin 2 precursor homolog; mature toxin amino acids 23-59 of SEQ ID NO:6, expressed from recombinant baculovirus (QVETNVKCTGGSCASTCKRVIGVAAGKCINGRCVCYP) | Slightly Active | Slightly Active
ibj1c.pk0002.f9 (protein) MKFLYGIILIALFLTVMIATHSEARCPNCFTTNPNAEADCKKCCGNRWGKCAGYQCVCPMK | Slightly Active | Slightly Active

system: Ca+2-activated K-channels and voltage-dependent K-channel (K(v) 1.3); assay: not given; details: Maxi-K, medium- and small-conductance Ca+2-activated K-channels and K(v) 1.3; cited from earlier work

Molecule | Potency of channel inhibition
charybdotoxin [ChTX] | in the low nanomolar range
